In article PMC4657098, “A Review of the Updated Pharmacophore for the Alpha 5 GABA(A) Benzodiazepine Receptor Model” (International Journal of Medicinal Chemistry, 2015):
Where two headings read alike, the source gives them in different places.

What was measured:
Parameters in all cases: expressed in transfected cells
[1] = molecular target: α5β3γ2 GABAA/BzR (Homo sapiens, UniProt P18507+P31644); experiment: Competition binding to HEK cell membranes, α5β3γ2
[2] = molecular target: α6β3γ2 GABAA/BzR (Homo sapiens, UniProt P18507+Q16445); experiment: Competition binding to HEK cell membranes, α6β3γ2
[3] = molecular target: α3β3γ2 GABAA/BzR (Homo sapiens, UniProt P18507+P34903); experiment: Competition binding to HEK cell membranes, α3β3γ2
[4] = molecular target: α1β3γ2 GABAA/BzR (Homo sapiens, UniProt P14867+P18507); experiment: Competition binding to HEK cell membranes, α1β3γ2
[5] = molecular target: α2β3γ2 GABAA/BzR (Homo sapiens, UniProt P18507+P47869); experiment: Competition binding to HEK cell membranes, α2β3γ2

SMILES | Ki ([1]; read-out: Ki α5) [µM] | Ki ([2]; Ki α6) [µM] | Ki ([3]; read-out: Ki α3) [µM] | Ki ([4]; Ki α1) [µM] | Ki ([1]; Ki α5) [µM] | Ki ([3]; Ki α3) [µM] | Ki ([5]; Ki α2) [µM] | Ki ([4]; read-out: Ki α1) [µM] | Ki ([2]; read-out: Ki α6) [µM] | Ki ([5]; read-out: Ki α2) [µM]
CCOc1cc2c(cn1)[nH]c1ccccc12 [3 EBC, 3-Ethoxy-beta-carboline] | 0.826 | 1 | 0.0282 | – | – | – | – | – | – | –
COCc1c(C(=O)OC(C)C)ncc2[nH]c3ccc(OCc4ccccc4)cc3c12 [ABECARNIL, reference compound] | – | 1 | – | 0.0124 | 0.006 | 0.0075 | 0.0153 | – | – | –
CC(C)(C)OC(=O)c1ncn2c1[C@@H]1CCCN1C(=O)c1c(Br)cccc1-2 [BRETAZENIL, reference compound] | – | 0.0127 | – | 0.00035 | 0.0005 | 0.0002 | 0.00064 | – | – | –
CN1Cc2c(C(=O)OC3CC3)ncn2-c2ccc(Cl)cc2C1=O [CD-214] | 0.0098 | – | 0.0425 | – | – | – | – | 0.0164 | 0.168 | 0.0482
COc1ccc(-n2nc3c4ccccc4[nH]cc-3c2=O)cc1 [CGS9895, reference compound] | – | – | – | – | – | – | – | 0.00021 | 0.0093 | –
O=C1C2C=Nc3ccccc3C2=NN1c1ccc(Cl)cc1 (centres unmarked) [CGS9896, reference compound] | – | 0.181 | – | 0.00028 | – | – | – | – | – | –
CC[C@@H](C)OC(=O)c1cc2c(cn1)[nH]c1ccccc12 [CM-A49 (R)] | 0.069 | – | 0.043 | – | – | – | – | 0.0077 | 1 | 0.0325
CC[C@H](C)OC(=O)c1cc2c(cn1)[nH]c1ccccc12 [CM-A50 (S)] | 0.144 | – | 0.088 | – | – | – | – | 0.017 | 1 | 0.059
CCCCc1cc2c(cn1)[nH]c1ccc(F)cc12 [CM-A58] | 1 | – | 0.184 | – | – | – | – | 0.016 | 1.01 | 0.12
CCC(C)OC(=O)c1cc2c(cn1)[nH]c1ccccc12 (centres unmarked) [CM-A64] | 0.216 | – | 0.116 | – | – | – | – | 0.018 | 1 | 0.06
CN1Cc2c(C(=O)OC(C)(C)C)ncn2-c2ccc(N3CCCC3)cc2C1=O [DM-139] | 0.00925 | – | 0.169 | – | – | – | – | 0.0058 | 0.325 | –
COc1ccc2c(c1)C(=O)N(C)Cc1c(C(=O)OC(C)(C)C)ncn1-2 [DM-215] | 0.000293 | – | 0.00742 | – | – | – | – | 0.00674 | 0.00828 | –
CN1Cc2c(C(=O)OC(C)(C)C)ncn2-c2ccc(O)cc2C1=O [DM-239] | 0.00014 | – | 0.00053 | – | – | – | – | 0.0015 | 0.00689 | –
O=C1CN=C(c2ccccc2Cl)c2cc(Br)ccc2N1 [DM-II-72] | 0.00202 | – | – | – | – | – | – | – | – | 0.00137
Cc1nnc2n1-c1ccc(Br)cc1C(c1ccccc1Cl)=NC2 [DM-II-90 (C17H12N4BrCl)] | 0.00037 | – | 0.00063 | – | – | – | – | – | 5 | 0.001
O=C(O)c1ncn2c1CN=C(c1ccccc1)c1cc(Br)ccc1-2 [DM-III-01] | 0.00473 | – | – | – | – | – | – | – | – | 0.012
O=[N+]([O-])c1ccc2[nH]c3cnc([N+](=O)[O-])cc3c2c1 [EDC-I-071] | 0.314 | – | – | – | – | – | – | 0.0129 | 5 | 0.0831
S=C=Nc1ccc2[nH]c3cnc(N=C=S)cc3c2c1 [EDC-I-093] | 2.91 | – | – | – | – | – | – | 0.0136 | 5 | 0.423
CCOC(=O)c1ncc2[nH]c3ccc(OCc4cccc5ccccc45)cc3c2c1COC [EDC-II-044] | 0.323 | – | 0.293 | – | – | – | – | 0.0154 | 1 | –
C#Cc1ccc2c(c1)C(c1ccccc1F)=NCc1c(C(=O)NC)ncn1-2 [HJ-I-037] | 0.000818 | – | 0.0283 | – | – | – | – | 0.0151 | – | 0.00813
C#Cc1ccc2c(c1)C(c1ccccc1)=NCC(NC)=N2 [Hz148] | 0.256 | – | – | – | – | – | – | 0.011 | 5 | 5
O=C1CN=C(c2cccs2)c2cc(Br)ccc2N1 [JC184] | 0.00671 | – | – | – | – | – | – | 0.00961 | – | 0.0105
C#Cc1ccc2c(c1)C(c1cccs1)=NCC(=O)N2 [JC208] | 0.00504 | – | – | – | – | – | – | 0.0224 | – | 0.0189
C#Cc1ccc2c(c1)C(c1cccs1)=NCC(=O)N2C [JC222] | 0.0176 | – | – | – | – | – | – | 0.0867 | – | 0.0451
CC(C)(C)OC(=O)c1ncn2c1C1CCCN1C(=O)c1cc(Br)ccc1-2 (centres unmarked) [JYI-01] | 0.0106 | – | 0.096 | – | – | – | – | 0.0592 | 0.00288 | –
C#Cc1ccc2c(c1)C(=O)N1CCCC1c1c(C(=O)OC(C)(C)C)ncn1-2 (centres unmarked) [JYI-03] | 0.000954 | – | – | – | – | – | – | 0.185 | 0.00334 | 0.107
C=Cc1ccc2c(c1)C(=O)N1CCC[C@H]1c1c(C(=O)OC(C)(C)C)ncn1-2 [JYI-04] | 0.00051 | – | – | – | – | – | – | 0.0283 | 0.00157 | 0.016
O=C(OCC(F)(F)F)c1ncn2c1C1CCCN1C(=O)c1cc(Br)ccc1-2 (centres unmarked) [JYI-10] | 0.0123 | – | – | – | – | – | – | 5 | 0.023 | 0.368
